Measured values from PubChem BioAssay (NCI).
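Exposure lasted 48 hours, with cells grown in 96-well plates and compounds tested at five concentrations. GI50: concentration for 50% inhibition of growth. TGI: total growth inhibition.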

Columns and labels:
Test in all cases: NCI tumour cell line growth inhibition, 48 h
EKVX NSCLC = tested on: EKVX NSCLC
A549 NSCLC = tested on: A549 NSCLC
HCC-2998 colon = tested on: HCC-2998 colon
A498 renal = tested on: A498 renal
M14 melanoma = tested on: M14 melanoma
OVCAR-5 ovarian = tested on: OVCAR-5 ovarian
UACC-257 melanoma = tested on: UACC-257 melanoma
RXF 393 renal = tested on: RXF 393 renal
UACC-62 melanoma = tested on: UACC-62 melanoma
MCF7 breast = tested on: MCF7 breast

Compound	TGI (EKVX NSCLC)	TGI (A549 NSCLC)	TGI (HCC-2998 colon)	TGI (A498 renal)	TGI (M14 melanoma)	TGI (OVCAR-5 ovarian)	TGI (UACC-257 melanoma)	TGI (RXF 393 renal)	TGI (UACC-62 melanoma)	GI50 (EKVX NSCLC)	GI50 (A549 NSCLC)	GI50 (A498 renal)	GI50 (M14 melanoma)	GI50 (OVCAR-5 ovarian)	GI50 (UACC-257 melanoma)	GI50 (UACC-62 melanoma)	GI50 (MCF7 breast)	TGI (MCF7 breast)	GI50 (RXF 393 renal)
CC(=N)N(C)O	> 100 µM	> 100 µM	> 100 µM	> 100 µM	> 100 µM	> 100 µM	> 100 µM	> 100 µM	> 100 µM										
COC(=O)C(C(=O)C(=O)Nc1ccc(OC)cc1[N+](=O)[O-])c1nc2cc(C)c(C)cc2[nH]c1=O (centres undefined)	> 100 µM	> 100 µM	> 100 µM	> 100 µM	> 100 µM		> 100 µM	> 100 µM	> 100 µM										
CC1=C2[C@H](c3ccccc3)C3C=CC2(c2ccccc23)N(C(=O)C(c2ccccc2)c2ccccc2)C1=O (some centres undefined)	> 100 µM	> 100 µM	> 100 µM	> 100 µM	> 100 µM	> 100 µM	> 100 µM	> 100 µM	> 100 µM										
Cc1cc(C)nc(NS(=O)(=O)c2ccc(NC(=O)c3ccc(Cl)c4c(Nc5ccc(S(=O)(=O)N=C(N)N)cc5)c5ccccc5nc34)cc2)n1	> 100 µM	> 100 µM	78.2 µM	> 100 µM	> 100 µM	> 100 µM	> 100 µM		> 100 µM										
Cc1cn2c(/C=C3/C(=O)Nc4ccc(F)cc43)c(C)nc2s1	> 50 µM	> 50 µM		25.8 µM	17 µM	> 50 µM	> 50 µM		48.3 µM	17.3 µM	6370 nM	9.59 µM	2680 nM	14.6 µM	36200 nM	3.85 µM	1920 nM	> 50 µM	
C=C1C(=O)OC2C1C(OC(=O)/C(C)=C\C)CC1(CO1)C1C(O)C=C(C)C21O (centres undefined)	26.5 µM	40.6 µM	15.1 µM	17.7 µM	7.58 µM	34.3 µM	21.7 µM	7.09 µM	5.81 µM										
O=C(NNC(=S)Nc1ccccc1)c1ccccn1		47.7 µM		> 100 µM	12.3 µM	> 100 µM	21.2 µM				1560 nM	4.55 µM	2100 nM	> 100 µM	2530 nM		3140 nM	> 100 µM	
CCOC(=O)c1c2cccccc2n2c(=O)cc(C)nc12	> 100 µM	> 100 µM	> 100 µM	> 100 µM	> 100 µM	> 100 µM	> 100 µM	> 100 µM	> 100 µM										
COc1ccc(/C=c2/sc3n(c2=O)NC(c2ccc(Cl)cc2)NN=3)cc1 (centres undefined)	> 100 µM	> 100 µM	> 100 µM		> 100 µM	> 100 µM		> 100 µM	> 100 µM										
CC(=O)C1CCC2C3CC=C4CC(SC(=N)N)CCC4(C)C3CCC12C (centres undefined)	6.88 µM	3.61 µM		3.73 µM	2.81 µM	8.87 µM	3.34 µM	3.63 µM		1.43 µM	1820 nM	1.19 µM	1460 nM	2.43 µM	1690 nM				1660 nM
CN(C)CCC1(C2=CCCC2)CC/C(=C\c2ccccc2Cl)C1=O (centres undefined)	29.3 µM	28.4 µM	22.1 µM	28.4 µM	26.8 µM	29.1 µM	28.4 µM	17.5 µM	29.8 µM										
CCCCCCCCCOC(=S)NCCCCC	86.8 µM	81.7 µM	> 100 µM	59 µM	87.9 µM		62.1 µM	53.6 µM	89 µM										
COC(=O)C(=O)C(C(=O)C=C(C)C)C(=O)C(=O)Nc1nc2ccc([N+](=O)[O-])cc2s1 (centres undefined)	> 100 µM	> 100 µM	> 100 µM	91 µM	> 100 µM	> 100 µM	> 100 µM	45.2 µM	> 100 µM										
COc1cc(CC(C(=O)O)C(=O)O)c(OC)cc1CC(C(=O)O)C(=O)O	> 100 µM	> 100 µM		> 100 µM	> 100 µM	> 100 µM	> 100 µM	> 100 µM	> 100 µM										
NNC(=O)N/N=C1\C(=O)N(c2nccs2)C(=O)C(=O)C1c1nc2ccccc2s1 (centres undefined)	> 100 µM	> 100 µM	> 100 µM		> 100 µM	> 100 µM	> 100 µM	> 100 µM	> 100 µM										
OC1CCC[C@@H]1Sc1ccccc1 (some centres undefined)	> 100 µM	> 100 µM	> 100 µM	> 100 µM	> 100 µM		> 100 µM	> 100 µM	> 100 µM										
CC(=O)ON(C(C)=O)C1C(COC(c2ccccc2)(c2ccccc2)c2ccccc2)OC2OC3(CCCC3)OC21 (centres undefined)	> 100 µM	> 100 µM	> 100 µM	> 100 µM	> 100 µM	> 100 µM	> 100 µM	60.4 µM	> 100 µM										
COc1ccc(NC(=O)CCc2cc(C(C)(C)C)n[nH]2)cc1	> 100 µM	> 100 µM	> 100 µM	> 100 µM	> 100 µM	> 100 µM	> 100 µM	> 100 µM	> 100 µM										
COc1cc(/C=C\c2ccc(OC(C)=O)cc2)cc(OC)c1OC	> 100 µM	> 100 µM	> 100 µM	78.4 µM	> 100 µM	> 100 µM	> 100 µM		> 100 µM										
COC(=O)C(=O)C(C(=O)C(=O)Nc1ccc(C)cc1)c1nc2ccc(C(=O)c3ccccc3)cc2[nH]c1=O (centres undefined)	> 100 µM	> 100 µM	> 100 µM	> 100 µM		> 100 µM	> 100 µM	> 100 µM	> 100 µM										
CC1=NN(C(=O)c2ccc(Cl)cc2)C(=O)/C1=C/c1ccco1	> 100 µM	> 100 µM	> 100 µM	> 100 µM	> 100 µM	> 100 µM	> 100 µM	> 100 µM	> 100 µM										
Cc1ccc(/C=C(\C#N)c2ccccc2)cc1			> 100 µM	> 100 µM	> 100 µM	> 100 µM	> 100 µM	> 100 µM	> 100 µM										
CCCCCCCCCCCCCC(=O)OCC1OC(n2cc(F)c(=O)[nH]c2=O)C(N)C(OC(=O)CCCCCCCCCCCCC)C1O (centres undefined)	> 100 µM	> 100 µM	> 100 µM	> 100 µM	> 100 µM		> 100 µM	> 100 µM	> 100 µM										
